Laboratory results as given in US7795220B2, “Conformationally constrained parathyroid hormones with alpha-helix stabilizers” (The General Hospital Corporation, priority 2003, dated 2010).
Non-standard residues stand in square brackets, D forms with d. Residues, ends and D or L forms follow the SMILES beside them. No end group written: not given here. hArg = N=C(N)NCCCC[C@H](N)C(=O)O; Ac5c = NC1(C(=O)O)CCCC1; Deg = CCC(N)(CC)C(=O)O; Ac3c = NC1(C(=O)O)CC1; Aib = CC(C)(N)C(=O)O

Experiments:
P1R [1] = target: T1, P1R (Homo sapiens, UniProt Q03431); conditions: literature; read-out: cAMP-signaling potency (EC50); cited from earlier work
T1 sequence (Q03431 27-593): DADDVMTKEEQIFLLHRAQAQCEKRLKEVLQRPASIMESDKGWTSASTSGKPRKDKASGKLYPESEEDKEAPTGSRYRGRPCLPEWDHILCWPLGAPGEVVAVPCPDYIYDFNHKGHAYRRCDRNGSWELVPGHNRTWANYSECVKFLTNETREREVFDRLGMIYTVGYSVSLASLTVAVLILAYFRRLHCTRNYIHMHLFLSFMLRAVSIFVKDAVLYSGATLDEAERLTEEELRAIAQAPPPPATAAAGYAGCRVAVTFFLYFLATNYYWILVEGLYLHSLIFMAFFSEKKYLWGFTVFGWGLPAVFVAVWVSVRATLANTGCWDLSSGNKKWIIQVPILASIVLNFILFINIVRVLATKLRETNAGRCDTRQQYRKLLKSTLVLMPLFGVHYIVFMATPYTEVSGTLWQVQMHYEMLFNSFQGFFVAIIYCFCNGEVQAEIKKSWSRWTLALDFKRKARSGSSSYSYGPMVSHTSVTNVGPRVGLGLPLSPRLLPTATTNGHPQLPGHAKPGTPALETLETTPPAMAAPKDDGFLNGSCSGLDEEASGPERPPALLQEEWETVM

hP1R-delNt = target: T2, hP1R-delNt (Homo sapiens, UniProt Q03431); assay: cAMP stimulation in LdelNt-2 cells; type: cell-based
T2 construct: expressed in transfected cells
T2 sequence (Q03431 with tags, fused parts or gaps limits assumed): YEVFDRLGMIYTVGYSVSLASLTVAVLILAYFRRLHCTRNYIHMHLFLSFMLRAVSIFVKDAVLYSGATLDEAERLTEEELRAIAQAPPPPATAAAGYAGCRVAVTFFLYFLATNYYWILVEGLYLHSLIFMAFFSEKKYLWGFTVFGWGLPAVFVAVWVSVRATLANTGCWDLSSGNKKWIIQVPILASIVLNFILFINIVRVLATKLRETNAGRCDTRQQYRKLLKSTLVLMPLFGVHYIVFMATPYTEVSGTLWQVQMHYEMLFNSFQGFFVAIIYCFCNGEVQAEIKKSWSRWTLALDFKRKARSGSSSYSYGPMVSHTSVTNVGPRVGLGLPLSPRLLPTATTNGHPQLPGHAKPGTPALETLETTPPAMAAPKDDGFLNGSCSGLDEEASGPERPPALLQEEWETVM
Source text: (§1) Cell Culture. The cell line HKRK-B28 (Takasu, H., et al., J. Bone Miner. Res. 14:11-20 (1999)) was derived from the porcine kidney cell line, LLC-PK1 by stable transfection with plasmid DNA encoding a recombinant P1R chimera comprised of the opposum P1R from the N-terminus to the mid region of TM3 and the rat P1R from the mid region of TM3 to the C-terminus. The surface density of the P1R in these cells is ˜280,000 receptors per cell. The clonal cell line LdelNt-2 was derived from LLC-PK, cells via stable transfection with a plasmid encoding P1R-delNt, a recombinant human PTH-1 receptor construct in which most of the amino-terminal extracellular domain is deleted. These cells, as well as COS-7 cells and SaOS-2-B10 cells, were cultured at […] in T-75 flasks ([…]) in Dulbecco's modified Eagle's medium (DMEM) supplemented with fetal bovine serum (10%), penicillin G (20 units/ml), streptomycin sulfate (20 μg/ml) and amphotericin B (0.05 μg/ml) in a humidified atmosphere containing 5% CO2. Stock solutions of EGTA/trypsin and antibiotics were from GLBCO; fetal bovine serum was from Hyclone Laboratories (Logan, Utah). COS-7 cells sub-cultured in 24-well plates were transfected with plasmid DNA (200 ng per well) encoding the wild-type human P1R or truncated human P1R deleted for residues (24-181) (Shimizu, M., et al., J. Biol. Chem. 275:21836-21843 (2000)) that was purified by cesium chloride/ethidium bromide density gradient centrifugation, and FuGENE 6 transfection reagent (Roche Indianapolis Ind.) according to the manufacturer's recommended procedure. All cells, in 24-well plates, were treated with fresh media and shifted to 33° C. for 12 to 24 h prior to assay.
(§2) cAMP Stimulation. Stimulation of cells with peptide analogs was performed in 24-well plates. Cells were rinsed with 0.5 mL of binding buffer (50 mM Tris-HCl, 100 mM NaCl, 5 mM KCl, 2 mM CaCl2, 5% heat-inactivated horse serum, 0.5% fetal bovine serum, adjusted to pH 7.5 with HCl) and treated with 200 μL of cAMP assay buffer (Delbecco's modified Eagle's medium containing 2 mM 3-isobutyl-1-methylxanthine, 1 mg/mL bovine serum albumin, 35 mM Hepes-NaOH, pH 7.4) and 100 μL of binding buffer containing varying amounts of peptide analog (final volume=300 μL). The medium was removed after incubation for 30 to 60 minutes at room temperature, and the cells were frozen on dry ice, lysed with 0.5 mL 50 mM HCl, and refrozen ([…]). The cAMP content of the diluted lysate was determined by radioimmunoassay. The EC50 response values were calculated using nonlinear regression (see below).
(§3) Data Calculation. Calculations were performed using Microsoft® Excel. Nonlinear regression analyses of binding and cAMP dose-response data were performed using the four-parameter equation: yp=Min+[(Max−Min)/(1+(IC50/x)^slope)]. The Excel Solver function was utilized for parameter optimization, as described previously (Carter, P. H., et al., Endocrinology 140: 4972-4981 (1999); Bowen, W. P., and Jerman, J. C., Trends in Pharmacol. Sci. 16: 413-417 (1995)). Differences between paired data sets were statistically evaluated using a one-tailed Student's t-test, assuming unequal variances for the two sets.
Agonist activities of selected analogs in cells expressing P1R-delNt were examined. This PTH-1 receptor construct lacks most of the N domain, but nevertheless mediates full agonist responses to N-terminally modified PTH analogs, and thus enables the relative roles of the receptor's N and J domains to the ligand interaction process to be evaluated. The clonal cell line LdelNT-2 was used, which was derived from LLC-PK, cells by stable transfection with a plasmid encoding the human P1R-delNt construct.

[2] = target: T3, P1R (recombinant P1R chimera) in HKRK-B28 cells (UniProt P25107+P25961, A364S/A509S/A517P/A524T/DEL519-521/E344G/G506A/H528S/I365V/I416T/I429T/K402R/K465R/L320I/M408V/N352H/S511P/S523T/T335G/T421L/T487S/V367L/V433I); assay: biochemical; type: binding, opposum/rat chimera
T3 construct: the opposum P1R from the N-terminus to the mid region of TM3; the rat P1R from the mid region of TM3 to the C-terminus; expressed in transfected cells
T3 sequence (P25107+P25961 fused with the stated changes): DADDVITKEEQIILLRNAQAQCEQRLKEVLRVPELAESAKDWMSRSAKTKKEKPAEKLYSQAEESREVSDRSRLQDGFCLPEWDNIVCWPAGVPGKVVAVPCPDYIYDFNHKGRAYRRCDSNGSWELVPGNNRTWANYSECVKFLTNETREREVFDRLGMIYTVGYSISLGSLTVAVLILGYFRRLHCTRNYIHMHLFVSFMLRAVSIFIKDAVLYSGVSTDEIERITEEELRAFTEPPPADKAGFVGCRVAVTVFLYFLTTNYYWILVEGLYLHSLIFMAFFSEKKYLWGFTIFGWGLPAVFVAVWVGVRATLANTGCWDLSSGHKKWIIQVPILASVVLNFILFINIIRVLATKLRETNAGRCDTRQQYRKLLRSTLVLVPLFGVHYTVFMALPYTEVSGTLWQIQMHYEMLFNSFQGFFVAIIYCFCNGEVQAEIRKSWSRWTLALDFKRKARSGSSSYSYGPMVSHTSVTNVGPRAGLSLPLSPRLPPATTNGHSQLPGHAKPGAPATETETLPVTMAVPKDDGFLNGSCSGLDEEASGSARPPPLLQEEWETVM
Source text: as §1
Competition Binding. Binding reactions were performed with HKRK-B28 cells or in COS-7 cells in 24-well plates. The cells were rinsed with 0.5 mL of binding buffer, and then treated successively with 100 μL binding buffer, 100 μL of binding buffer containing various amounts of unlabeled competitor ligand, and 100 μL of binding buffer containing ca. 100,000 cpm of ^125I-[Aib^1,3,Nle^8,Gln^10,Har^11,Ala^12,Trp^14,Arg^19,Tyr^21]rPTH(1-21) (SEQ. ID. NO. 36) (ca. 26 fmol; final volume=300 μL). Incubations were 4 to 6 h at 4° C., at which time near equilibrium conditions were attained. Cells were then placed on ice, the binding medium was removed, and the monolayer was rinsed three times with 0.5 mL of cold binding buffer. The cells were subsequently lysed with 0.5 mL 5N NaOH and counted for radioactivity. For each tracer and in each experiment, the non-specific binding was determined as the radioactivity that bound in the presence of the same unlabeled peptide at a concentration of 1 μM, and was ˜1% of total radioactivity added for each tracer. The maximum specific binding (B0) was the total radioactivity bound in the absence of competing ligand, corrected for nonspecific binding, and for each tracer, ranged from 8% to 20% of the total radioactivity added. Nonlinear regression was used to calculate binding IC50 values (see below). Scatchard transformations of homologous competition binding data derived from studies with 26 fmol of ^125I-[Aib^1,3,Nle^8,Gln^10,Har^11,Ala^12,Trp^14, Arg^19,Tyr^21]rPTH(1-21) (SEQ. ID. NO. 36) were employed for estimations of apparent equilibrium dissociation constant (kDapps) and total number of ligand binding sites (Bmax), assuming a single class of binding sites and equal affinities of the iodinated and non iodinated ligand.
as §3, with “Differences between paired data sets were statistically evaluated using a one-tailed Student's t-test, assuming unequal variances for the two sets.” left out

[3] = system: P1R (recombinant P1R chimera) in HKRK-B28 cells; assay: cAMP stimulation in HKRK-B28 cells; type: cell-based, opposum/rat chimera
Source text: as §1, §2, §3

P1R [4] = assay: Antagonism of agonist-induced cAMP activity; type: cell-based; conditions: analog at 10^−5 M, agonist at 10^−9 M
Protocol: Polypeptides described herein can be screened for their agonistic or antagonistic properties using the cAMP accumulation assay. Cells expressing PTH-1 receptor on the cell surface are incubated with native PTH(1-84) (SEQ. ID. NO. 18) for 5-60 minutes at 37° C., in the presence of 2 mM IBMX (3-isobutyl-1-methyl-xanthine, Sigma, St. Louis, Mo.). Cyclic AMP accumulation is measured by specific radio-immunoassay. A compound that competes with native PTH(1-84) or PTH(1-34) (SEQ. ID. NO. 19) for binding to the PTH-1 receptor, and that inhibits the effect of native PTH(1-84) or PTH(1-34) on cAMP accumulation, is considered a competitive antagonist. Such a compound would be useful for treating hypercalcemia.
Ligands that function as antagonists can be useful for treating hyperparathyroidism. Analogs of [Ac5c^1, Aib^3, M]PTH(1-14)(parent) (SEQ. ID. NO. 15) containing N-terminal modifications predicted to dissociate signaling and binding affinity (e.g. desamino-1, Trp-2, Bpa-2, Arg-2, Deg-1,3).

PTH(1-34)
EC50 (P1R [1]): ~2 nM

CC[C@H](C)[C@H](NC(=O)[C@H](CCC(=O)O)NC(=O)C(C)(C)NC(=O)[C@@H](NC(=O)C(C)(C)N)C(C)C)C(=O)N[C@@H](CCC(N)=O)C(=O)N[C@@H](CC(C)C)C(=O)N[C@@H](CCSC)C(=O)N[C@@H](Cc1c[nH]cn1)C(=O)N[C@@H](CCC(N)=O)C(=O)N[C@@H](CCCCNC(=N)N)C(=O)N[C@@H](C)C(=O)N[C@@H](CCCCN)C(=O)N[C@@H](Cc1c[nH]c2ccccc12)C(N)=O [[Aib^1,3,M]PTH(1-14), [Aib^1,3,Gln^10,Har^11,Ala^12,Trp^14]PTH(1-14)NH2] (H-[Aib]V[Aib]EIQLMHQ[hArg]AKW-NH2)
EC50 (hP1R-delNt): 6.4 ± 1.6 nM

[Ac3c^1,3,Gln^10,Har^11,Ala^12,Trp^14]PTH(1-14)NH2 ([Ac3c]V[Ac3c]EIQLMHQ[hArg]AKW-NH2) [[Ac3c^1,3,M]PTH(1-14)]
P1R binding affinity (in words) [2]: comparable to the parent peptide
cAMP agonist activity / signaling potency (in words) [3]: comparable to the parent peptide

[Ac5c^1,Trp^2,Aib^3, M]PTH(1-14) (H-[Ac5c]W[Aib]EIQLMHQ[hArg]AKW-NH2; SMILES CC[C@H](C)[C@H](NC(=O)[C@H](CCC(=O)O)NC(=O)C(C)(C)NC(=O)[C@H](Cc1c[nH]c2ccccc12)NC(=O)C1(N)CCCC1)C(=O)N[C@@H](CCC(N)=O)C(=O)N[C@@H](CC(C)C)C(=O)N[C@@H](CCSC)C(=O)N[C@@H](Cc1c[nH]cn1)C(=O)N[C@@H](CCC(N)=O)C(=O)N[C@@H](CCCCNC(=N)N)C(=O)N[C@@H](C)C(=O)N[C@@H](CCCCN)C(=O)N[C@@H](Cc1c[nH]c2ccccc12)C(N)=O)
inhibition of the agonist activity of [Aib1,3,M]PTH(1-14) (P1R [4]): 50%

CC[C@H](C)[C@H](NC(=O)[C@H](CCC(=O)O)NC(=O)C(CC)(CC)NC(=O)[C@@H](NC(=O)C(N)(CC)CC)C(C)C)C(=O)N[C@@H](CCC(N)=O)C(=O)N[C@@H](CC(C)C)C(=O)N[C@@H](CCSC)C(=O)N[C@@H](Cc1c[nH]cn1)C(=O)N[C@@H](CCC(N)=O)C(=O)N[C@@H](CCCCNC(=N)N)C(=O)N[C@@H](C)C(=O)N[C@@H](CCCCN)C(=O)N[C@@H](Cc1c[nH]c2ccccc12)C(N)=O [[Deg^1,3,M]PTH(1-14), [Deg^1,3,Gln^10,Har^11,Ala^12,Trp^14]PTH(1-14)NH2] (H-[Deg]V[Deg]EIQLMHQ[hArg]AKW-NH2)
P1R binding affinity (in words) [2]: bound with adequate affinity
binding affinity higher than that of parent [M]PTH(1-14) ([2]; relative to parent [M]PTH(1-14)): 50 fold
EC50 (hP1R-delNt): 1400 ± 500 nM
agonist behavior (in words) (hP1R-delNt): partial agonist behavior
increase in cAMP accumulation (Emax) over basal (hP1R-delNt): 23 fold
maximum cAMP response as percent of that attained by the parent peptide ([3]; HKRK-B28 cells): 45%
cAMP agonist activity / signaling potency (in words) [3]: true partial agonist for cAMP formation
cAMP agonist activity / signaling potency (in words) ([3]; listed as [Deg^1,3,Gln^10,Har^11,Ala^12,Trp^14]pTH(1-14)NH2): partial agonist response
